Experimental data as given in ChEMBL document CHEMBL5346899, “PKM2/PDK1 dual-targeted shikonin derivatives restore the sensitivity of EGFR-mutated NSCLC cells to gefitinib by remodeling glucose metabolism” (Eur J Med Chem, 2023).
Calls of active or inactive are those of the source. No cut-off for these calls is given here.

Experiments:
[1] = system: NCI-H1975; assay: Antiproliferative activity against human NCI-H1975 cells assessed as reduction in clone size; assay type: functional, cell-based
[2] = system: HCC827; assay: Antiproliferative activity against human HCC827 cells assessed as inhibition of clone formation rate; assay type: functional, cell-based
[3] = system: HCC827; assay: Antiproliferative activity against human HCC827 cells assessed as reduction in clone size; assay type: functional, cell-based
[4] = system: NCI-H1299; assay: Induction of apoptosis in human NCI-H1299 cells assessed as early apoptotic cells at 1 micromol/L incubated for 24 hrs by Annexin V-FITC/PI staining based analysis (reference value: 2.43%); assay type: functional; details: dose 1 µmol/L, at 1 µM
[5] = system: NCI-H1299; assay: Induction of apoptosis in human NCI-H1299 cells assessed as early apoptotic cells at 2 micromol/L incubated for 24 hrs by Annexin V-FITC/PI staining based analysis (reference value: 2.43%); assay type: functional; details: dose 2 µmol/L, at 2 µM
[6] = system: A549; assay: Induction of apoptosis in human A549 cells assessed as early apoptotic cells at 1 micromol/L incubated for 24 hrs by Annexin V-FITC/PI staining based analysis (reference value: […]%); assay type: functional; details: dose 1 µmol/L
[7] = system: A549; assay: Induction of apoptosis in human A549 cells assessed as late apoptotic cells at 1 micromol/L incubated for 24 hrs by Annexin V-FITC/PI staining based analysis (reference value: 3.18%); assay type: functional; details: dose 1 µmol/L, at 1 µM
[8] = system: A549; assay: Induction of apoptosis in human A549 cells assessed as late apoptotic cells at 2 micromol/L incubated for 24 hrs by Annexin V-FITC/PI staining based analysis (reference value: 3.18%); assay type: functional; details: dose 2 µmol/L, at 2 µM
[9] = system: NCI-H1975; assay: Induction of apoptosis in human NCI-H1975 cells assessed as early apoptotic cells at 2 micromol/L incubated for 24 hrs by Annexin V-FITC/PI staining based analysis (reference value: 1.88%); assay type: functional; details: dose 2 µmol/L, at 2 µM
[10] = system: HCC827; assay: Induction of apoptosis in human HCC827 cells assessed as late apoptotic cells at 2 micromol/L incubated for 24 hrs by Annexin V-FITC/PI staining based analysis (reference value: 8.42%); assay type: functional; details: dose 2 µmol/L, at 2 µM
[11] = system: NCI-H1975; assay: Induction of apoptosis in human NCI-H1975 cells assessed as regulation of Caspase-9 expression by Western blot analysis; assay type: functional, cell-based
[12] = system: NCI-H1975; assay: Induction of apoptosis in human NCI-H1975 cells assessed as regulation of FADD expression by Western blot analysis; assay type: functional, cell-based
[13] = system: NCI-H1975; assay: Induction of mitochondrial transmembrane potential dissipation in human NCI-H1975 cells assessed as cells with high mitochondrial transmembrane potential at 0.5 micromol/L by FL-1/FL-2 channel based fluorescence analysis (reference value: 97.4%); assay type: functional; details: dose 0.5 µmol/L; at 0.5 µM
[14] = system: NCI-H1975; assay: Induction of mitochondrial transmembrane potential dissipation in human NCI-H1975 cells assessed as cells with high mitochondrial transmembrane potential at 1 micromol/L by FL-1/FL-2 channel based fluorescence analysis (reference value: 97.4%); assay type: functional; details: dose 1 µmol/L; at 1 µM
[15] = system: NCI-H1975; assay: Induction of intracellular ROS accumulation in human NCI-H1975 cells; assay type: functional, cell-based
[16] = biological target: T1, Pyruvate kinase PKM (Homo sapiens, UniProt P14618); assay: Binding affinity to PKM2 (unknown origin) assessed as dissociation constant associated for 60 secs and dissociated for 90 secs by bio-layer interferometry analysis
Target sequence in this assay (P14618 whole entry): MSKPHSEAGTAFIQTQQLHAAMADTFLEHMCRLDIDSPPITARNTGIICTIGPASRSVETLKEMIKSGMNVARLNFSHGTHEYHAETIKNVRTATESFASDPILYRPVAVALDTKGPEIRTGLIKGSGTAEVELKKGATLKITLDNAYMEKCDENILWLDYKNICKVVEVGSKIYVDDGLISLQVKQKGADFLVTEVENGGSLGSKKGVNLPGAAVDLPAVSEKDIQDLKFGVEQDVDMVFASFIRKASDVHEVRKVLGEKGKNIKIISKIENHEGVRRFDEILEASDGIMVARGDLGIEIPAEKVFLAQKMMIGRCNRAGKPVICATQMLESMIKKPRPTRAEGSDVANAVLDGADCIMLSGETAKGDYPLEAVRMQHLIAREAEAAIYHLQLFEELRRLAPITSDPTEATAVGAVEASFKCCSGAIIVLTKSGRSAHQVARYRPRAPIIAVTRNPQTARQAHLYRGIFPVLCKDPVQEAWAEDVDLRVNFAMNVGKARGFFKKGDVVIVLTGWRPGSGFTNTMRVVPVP

[17] = biological target: T1, Pyruvate kinase PKM; assay: Activation of PKM2 in human NCI-H1975 cells at 1 to 2 micromol/L by Western blot analysis; assay type: cell-based; details: filed as activator, dose 1-2 µmol/L
Target sequence in this assay (P14618 2-531 limits assumed): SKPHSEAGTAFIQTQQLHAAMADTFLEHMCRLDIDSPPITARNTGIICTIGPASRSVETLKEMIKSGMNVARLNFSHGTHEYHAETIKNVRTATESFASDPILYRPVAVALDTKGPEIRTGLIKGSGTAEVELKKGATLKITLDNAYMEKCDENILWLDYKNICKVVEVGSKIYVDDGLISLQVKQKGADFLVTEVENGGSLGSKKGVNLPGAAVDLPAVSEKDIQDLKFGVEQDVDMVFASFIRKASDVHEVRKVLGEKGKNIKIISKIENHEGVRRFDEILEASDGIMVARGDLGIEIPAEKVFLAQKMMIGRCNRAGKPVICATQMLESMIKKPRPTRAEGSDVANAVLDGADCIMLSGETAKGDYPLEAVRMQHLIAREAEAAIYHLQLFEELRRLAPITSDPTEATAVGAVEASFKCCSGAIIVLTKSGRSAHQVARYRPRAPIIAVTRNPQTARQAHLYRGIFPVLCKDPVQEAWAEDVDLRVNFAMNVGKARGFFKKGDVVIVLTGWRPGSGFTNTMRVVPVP

[18] = system: HCC827; assay: Antiproliferative activity against siRNA mediated PKM2 knockdown human HCC827 cells assessed as inhibition of cell growth incubated for 24 hrs by CCK-8 assay; assay type: functional, cell-based; details: HCC827, 24 h
[19] = biological target: T1, Pyruvate kinase PKM; assay: Inhibition of PKM2 (unknown origin) nuclear translocation
Target sequence in this assay (P14618 2-531 limits assumed): as above

[20] = biological target: [Pyruvate dehydrogenase (acetyl-transferring)] kinase isozyme 1, mitochondrial (Homo sapiens, UniProt Q15118); assay: Binding affinity to PDK1 (unknown origin) assessed as dissociation constant associated for 60 secs and dissociated for 90 secs by bio-layer interferometry analysis
[21] = system: HCC827; assay: Upregulation of PDH protein expression in human HCC827 cells at 1 to 2 micromol/L by Western blot analysis; assay type: functional, cell-based; details: dose 1-2 µmol/L
[22] = system: NCI-H1975; assay: Induction of apoptosis in human NCI-H1975 cells transfected with siRNA assessed as early apoptotic cells at 1 micromol/L incubated for 24 hrs by Annexin V-FITC/PI staining based analysis (reference value: 1.16%); assay type: functional; details: dose 1 µmol/L, at 1 µM
[23] = system: NCI-H1975; assay: Induction of apoptosis in human NCI-H1975 cells with siRNA mediated […] knockdown assessed as early apoptotic cells at 1 micromol/L incubated for 24 hrs by Annexin V-FITC/PI staining based analysis (reference value: 2.54%); assay type: functional; details: dose 1 µmol/L, at 1 µM
[24] = system: NCI-H1975; assay: Induction of apoptosis in human NCI-H1975 cells with siRNA mediated […] knockdown assessed as late apoptotic cells at 2 micromol/L incubated for 24 hrs by Annexin V-FITC/PI staining based analysis (reference value: 6.25%); assay type: functional; details: dose 2 µmol/L, at 2 µM
[25] = system: NCI-H1975; assay: Antiproliferative activity against human NCI-H1975 cells transfected with siRNA assessed as inhibition of cell growth incubated for 24 hrs by CCK-8 assay; assay type: functional, cell-based; details: NCI-H1975, 24 h
[26] = system: NCI-H1975; assay: Inhibition of glycolysis in human NCI-H1975 cells assessed as reduction in glucose consumption incubated for 24 hrs by colorimetric assay; assay type: functional, cell-based
[27] = system: NCI-H1975; assay: Antitumor activity against human NCI-H1975 cells xenografted in athymic nu/nu mouse assessed as reduction in tumor size at 2.4 to 4.8 mg/kg, ip administered every 2 days for 11 days by vernier caliper method; assay type: functional, organism-based; details: dose 2.4-4.8 mg/kg, time 11.0 day
[28] = Toxicity in athymic nu/nu mouse xenografted with human NCI-H1975 cells assessed as reduction in body weight at 2.4 to 4.8 mg/kg, ip administered every 2 days for 11 days; assay type: organism-based; details: in vivo, 264 h, dose 2.4-4.8 mg/kg, time 11 day
[29] = Acute toxicity in ICR mouse assessed as reduction in animal survival rate at 2.4 to 38.4 mg/kg, ip administered once for 14 days and measured every day; assay type: organism-based; details: in vivo, 336 h, dose 2.4-38.4 mg/kg, time 14 day
[30] = Acute toxicity in ICR mouse assessed as damage in vital organs at 2.4 to 38.4 mg/kg, ip measured after 15 days by H and E staining based analysis; assay type: organism-based; details: in vivo, 360 h, dose 2.4-38.4 mg/kg, time 15 day
[31] = system: NCI-H1975; assay: Induction of apoptosis in human NCI-H1975 cells assessed as dead cells at 0.5 micromol/L incubated for 24 hrs by Annexin V-FITC/PI staining based analysis (reference value: 0.103%); assay type: functional; details: dose 0.5 µmol/L, at 0.5 µM
[32] = system: NCI-H1975; assay: Induction of apoptosis in human NCI-H1975 cells assessed as early apoptotic cells at 0.5 micromol/L incubated for 24 hrs in presence of gefitinib by Annexin V-FITC/PI staining based analysis (reference value: 2.55%); assay type: functional; details: dose 0.5 µmol/L, at 0.5 µM
[33] = system: NCI-H1975; assay: Induction of apoptosis in human NCI-H1975 cells assessed as dead cells at 0.5 micromol/L incubated for 24 hrs in presence of gefitinib by Annexin V-FITC/PI staining based analysis (reference value: 0.103%); assay type: functional; details: dose 0.5 µmol/L, at 0.5 µM

Sequence of [Pyruvate dehydrogenase (acetyl-transferring)] kinase isozyme 1, mitochondrial (Q15118 whole entry): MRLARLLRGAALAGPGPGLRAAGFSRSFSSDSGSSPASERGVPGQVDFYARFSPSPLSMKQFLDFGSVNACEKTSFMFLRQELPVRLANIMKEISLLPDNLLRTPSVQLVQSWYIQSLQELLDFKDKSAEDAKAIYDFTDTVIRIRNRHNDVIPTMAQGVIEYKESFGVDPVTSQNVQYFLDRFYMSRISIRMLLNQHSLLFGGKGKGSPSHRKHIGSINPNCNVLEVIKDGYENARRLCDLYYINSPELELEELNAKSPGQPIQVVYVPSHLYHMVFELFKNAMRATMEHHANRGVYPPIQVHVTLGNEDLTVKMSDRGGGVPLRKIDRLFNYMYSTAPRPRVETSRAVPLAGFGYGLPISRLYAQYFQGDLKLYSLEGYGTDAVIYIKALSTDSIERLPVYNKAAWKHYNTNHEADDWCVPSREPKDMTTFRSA

Question: Which Activity [1] does the source give for `COC(=O)[C@H](CS[C@H](CC=C(C)C)C1=CC(=O)c2c(O)ccc(O)c2C1=O)NC(=O)CCCC[C@@H]1CCSC(c2ccccc2C)S1` (stereo partly drawn) here?
Answer: Dose-Dependent Effect

Question: And the Activity [2]?
Answer: Dose-Dependent Effect

Question: What about the Activity [3] of the same molecule?
Answer: Dose-Dependent Effect

Question: What about the Activity [4] of the same molecule?
Answer: 4.68%

Question: And the Activity [5]?
Answer: 2.68%

Question: And the Activity [6]?
Answer: 8.74%

Question: What about the Activity [7] of the same molecule?
Answer: 5.33%

Question: And the Activity [8]?
Answer: 6.46%

Question: And the Activity [9]?
Answer: 22.2%

Question: What about the Activity [10] of the same molecule?
Answer: 41.1%

Question: And the Activity [11]?
Answer: Active

Question: And the Activity [12]?
Answer: Active

Question: And the Activity [13]?
Answer: 88.1%

Question: And the Activity [14]?
Answer: 62.2%

Question: And the Activity [15]?
Answer: Active

Question: And the Kd [16]?
Answer: 28 µM

Question: What about the Activity [17] of the same molecule?
Answer: Active

Question: What about the IC50 [18] of the same molecule?
Answer: 13 µM

Question: And the inhibition [19]?
Answer: Active

Question: What about the Kd [20] of the same molecule?
Answer: 12.1 µM

Question: And the Activity [21]?
Answer: Active

Question: What about the Activity [22] of the same molecule?
Answer: 3.44%

Question: And the Activity [23]?
Answer: 1.82%

Question: What about the Activity [24] of the same molecule?
Answer: 8.16%

Question: What about the IC50 [25] of the same molecule?
Answer: 3.5 µM

Question: And the inhibition [26]?
Answer: Active

Question: What about the Activity [27] of the same molecule?
Answer: Active

Question: What about the Activity [28] of the same molecule?
Answer: Non-Toxic

Question: What about the Activity [29] of the same molecule?
Answer: Non-Toxic

Question: And the Activity [30]?
Answer: Non-Toxic

Question: What about the Activity [31] of the same molecule?
Answer: 0%

Question: And the Activity [32]?
Answer: 17.6%

Question: And the Activity [33]?
Answer: 0.011%
